# Test results reported in patent US20060241177A1, “Novel compounds, pharmaceutical compositions containing same, and methods of use for same” (priority 2002, published 2006).
# Assays:
# [1] = test system: HCT-116 human colon cancer xenografts; assay: In vivo anti-tumor test, HCT-116 subcutaneous flank xenografts; parameters: species or system nu/nu female mice; conditions: 10 mg/kg i.p. repeated, 11 treated animals, day 10, from repeated i.p. injection
# Protocol: In Vivo Testing for Anti-Tumor Activity
# Subcutaneous flank xenografts of the human colon cancer cell line, HCT-116 in nu/nu female mice (Harlan) were used to study the anti-tumor effects of Compound 1 in vivo. All animal experiments complied with institutional animal care guidelines. 10^7 HCT-116 cells (˜0.1 ml packed cells) were xenografted from culture in DMEM supplemented with 10% FBS into […]. Treatment began when measurable tumors developed about 3 days after inoculation. Compound 1 (10 mg/kg) was diluted into 40 μl DMSO and treated intraperitoneally (i.p.) 11 animals received JMM-III-231 10 mg/kg, i.p., at days indicated by arrows, and 11 received DMSO control. Tumors were measured on days indicated. […] Error bars represent standard error of the mean.
# [2] = test system: Raji cells; conditions: Tomoda et al. 1991; cited from earlier work
# [3] = target: rat liver acyl-CoA synthetase; conditions: Tomoda et al. 1987; Omura et al. 1986; read-out: 50% inhibition of rat liver acyl-CoA synthetase; cited from earlier work
# [4] = target: viral HIV protease (Human immunodeficiency virus type 1 group M subtype B, UniProt P04585); conditions: Moelling et al. 1990; cited from earlier work
structure (smiles),measurement,setting,value
"C=CCNC(=O)C1C(=C)C(=O)O[C@H]1CCCCCCCC (mixture of isomers) [Compound 1, (±)-α-Methylene-γ-butyrolactone-5-octyl-4-allyl amide]",Death of treated mice in xenograft study,[1],One Compound 1 treated mouse died on day 10
"CCCC=CCC=CC=CC=NN=NO [Triacsin C, 1-hydroxy-3-(E, E, E-2′,4′,7′-undecatrienylidine) triazene]",concentration causing growth inhibition in Raji cells,[2],1.0 µM
same,IC50,[3],8.7 µM
"C/C=C/C/C=C/CCC(=O)[C@H]1O[C@H]1C(N)=O [cerulenin, (2S,3R)-2,3-epoxy-4-oxo-7,10 dodecadienoyl amide]",concentration for inhibition of viral HIV protease,[4],5 mg/mL
